Experiments:
NZM mice [1] = test: Renal histopathology scoring (kidney IC-GN), NZM mice (Example 2); type: in vivo, mouse
Description: For histological analyses, the left kidney from each animal is removed and fixed in 10% buffered neutral formalin (EMD) for 48 hours on an orbital rocker at 25° C., then washed overnight with running dH2O and stored in 70% ethanol at 4° C. until ready to be processed. Kidney stains used for histological analyses included hematoxylin and eosin (H&E), Periodic Acid Schiff (PAS) and Trichrome stains (Wistar Institute, Philadelphia, Pa.). All 3 stained sections are used by the pathologist for scoring purposes. All histological scoring is performed blinded and by an independent board certified veterinary medical pathologist (Julie Engiles, VMD, DACVP). Multiple stains are used to determine score values. Images in FIG. 39 show worst affected area of section selected blindly by the pathologist.
Kidney IC-GN Scoring Method (Smith, Dong et al. 2007):
1. Glomerular cellularity—Score 1-5: Null, low, moderate, high, severe
2. Glomerular necrosis—Score 1-5: Null, low, moderate, high, severe
3. Glomerulosclerosis—Score 1-5: Null, low, moderate, high, severe
4. Interstitial infiltration—Score 1-5: Null, low, moderate, high, severe
5. Tubular atrophy—Score 1-5: Null, low, moderate, high, severe
6. Interstitial fibrosis—Score 1-5: Null, low, moderate, high, severe
7. Vasculitis—Score 1-5: Null, low, moderate, high, severe
Specific Pathologist Definitions: • Necrosis is defined by the presence of nuclear debris/pyknosis within the glomerular tuft indicative of “necrosis.” In many samples, this is a very mild, rare finding within only a very few segments of the glomerular tuft. Also consider effacement of the glomerular tuft by PAS positive, Trichrome negative material necrosis. • Glomerular sclerosis is defined by increased fibroplasia or fibrosis within the glomerular tuft or capsule. […] Most of the vascular changes are mild and could be considered “arteriosclerosis” characterized by proliferation of the smooth muscle cells, and hyalinization of the extracellular matrix. This change may reflect hypertension secondary to glomerular pathology. In very few animals is there overt “vasculitis.” Most inflammatory changes are within the walls of the blood vessels, with little to no damage to the endothelium, and no overt hemorrhage/fibrin leakage. Many also have perivascular rims of fibroblasts.

MRL/lpr mice = test: Splenomegaly (spleen mass), MRL/lpr mice; type: in vivo, mouse
Description: FIG. 5 depicts splenomegaly for MRL/lpr mice across treatment groups for the study duration. MRL/lpr mice were treated as outlined in the legend. The spleen masses for all mice that survived until the end of the experiment are graphed. Each symbol represents the spleen weight for one mouse at 25 weeks of age.
Mice are tracked on an individual basis.
Vehicle alone is provided orally twice weekly (p.o.). Both proteasome inhibitors are suspended in the vehicle solution. […] In addition, urine proteinuria is determined for all animals.
Vehicle was 3% DMSO/10% Solutol/87% PBS.

NZM mice [2] = test: Serum C3 complement ELISA, NZM mice (Example 2)
NZM mice [3] = test: Survival, NZM lupus nephritis model, ip dosing (Example 2); type: in vivo, mouse
[4] = COMPOUND A once and twice weekly

## CC(C)C[C@H](NC(=O)[C@@H](NC(=O)c1cccc(-c2ccccc2)n1)[C@@H](C)O)B(O)O [COMPOUND A, [(1R)-1-[[(2S,3R)-3-hydroxy-2-[6-phenyl-pyridine-2-carbonyl)amino]-1-oxobutyl]amino]-3-methylbutylboronic acid]
NZM mice [1]; 3 mg/kg 2× wk
  p, glomerulosclerosis (GS) vs G3 Bortezomib 0.3 mg/kg 1× wk: p < 0.001
  p, glomerulosclerosis (GS) vs G6 DEX 1.5 mg/kg 1× wk: p < 0.001
  p, glomerulosclerosis (GS) vs G7 Vehicle: p < 0.01
  p, interstitial fibrosis (IF) vs G3 Bortezomib 0.3 mg/kg 1× wk: p < 0.01
  p, interstitial fibrosis (IF) vs G6 DEX 1.5 mg/kg 1× wk: p < 0.001
  p, interstitial fibrosis (IF) vs G7 Vehicle: p < 0.01
  p, interstitial infiltration (II) vs G6 DEX 1.5 mg/kg 1× wk: p < 0.01
  p, interstitial infiltration (II) vs G7 Vehicle: p < 0.05
  p, tubular atrophy (TA) vs G3 Bortezomib 0.3 mg/kg 1× wk: p < 0.01
  p, tubular atrophy (TA) vs G6 DEX 1.5 mg/kg 1× wk: p < 0.001
  p, tubular atrophy (TA) vs G7 Vehicle: p < 0.001
  p, vasculitis (VA) vs G7 Vehicle: p < 0.05
NZM mice [1]; [4]
  glomerular cellularity reduction vs vehicle: ~50%
  glomerulosclerosis reduction vs vehicle: ~53%
  interstitial fibrosis reduction vs vehicle: ~55%
  interstitial infiltration reduction vs vehicle: 43-46%
  tubular atrophy reduction vs vehicle: 55-59%
  vasculitis reduction vs vehicle: 51-55%
NZM mice [1]; G1 3 mg/kg ip, 1× wk
  Kidney glomerular cellularity, percent change vs vehicle: −48%
  Kidney glomerular necrosis, percent change vs vehicle: −29%
  Kidney glomerulosclerosis, percent change vs vehicle: −54%
  Kidney interstitial fibrosis, percent change vs vehicle: −56%
  Kidney interstitial infiltration, percent change vs vehicle: −46%
  Kidney tubular atrophy, percent change vs vehicle: −59%
  Kidney vasculitis, percent change vs vehicle: −55%
NZM mice [1]; G2 3 mg/kg ip, 2× wk
  Kidney glomerular cellularity, percent change vs vehicle: −50%
  Kidney glomerular necrosis, percent change vs vehicle: −29%
  Kidney glomerulosclerosis, percent change vs vehicle: −53%
  Kidney interstitial fibrosis, percent change vs vehicle: −55%
  Kidney interstitial infiltration, percent change vs vehicle: −43%
  Kidney tubular atrophy, percent change vs vehicle: −55%
  Kidney vasculitis, percent change vs vehicle: −51%
NZM mice [1]; mouse, in vivo
  decrease in renal histopathology score over several parameters vs vehicle: 45-55%
MRL/lpr mice; 3 mg/kg iv twice weekly
  splenomegaly decrease vs vehicle at the end of the study: 74%
MRL/lpr mice; G1: 3 mg/kg iv, 1× wk
  EOS spleen mass, percent change vs vehicle: −67%
MRL/lpr mice; G2: 3 mg/kg iv, 2× wk
  EOS spleen mass, percent change vs vehicle: −74%
MRL/lpr mice; G3: 10 mg/kg po, 2× wk
  EOS spleen mass, percent change vs vehicle: −56%
NZM mice [2]; G1 3 mg/kg 1× wk ip
  p, serum C3 complement levels vs G6 Bortezomib 0.3 mg/kg 2× wk ip: p < 0.01
  p, serum C3 complement levels vs G7 CTX 50 mg/kg 1× wk ip: p < 0.001
  p, serum C3 complement levels vs G9 Vehicle 2× wk po: p < 0.05
NZM mice [2]; G1 3 mg/kg ip, 1× wk
  Serum C3 complement AUC, percent change vs vehicle: 45%
NZM mice [2]; G2 3 mg/kg 2× wk ip
  p, serum C3 complement levels vs G7 CTX 50 mg/kg 1× wk ip: p < 0.05
NZM mice [2]; G2 3 mg/kg ip, 2× wk
  Serum C3 complement AUC, percent change vs vehicle: 32%
NZM mice [2]; once weekly
  serum C3 increase above vehicle: 45%
NZM mice [3]; COMPOUND A treatment groups, vehicle 45%
  animals remaining at the end of the study (day 310): 100%
NZM mice [3]; G1 3 mg/kg ip, 1× wk
  EOS survival, percent live mice from original number: 100%
NZM mice [3]; G1: 3 mg/kg ip once per week
  survival increase relative to vehicle: 55%
NZM mice [3]; G2 3 mg/kg ip, 2× wk
  EOS survival, percent live mice from original number: 91%
NZM mice [3]; G2: 3 mg/kg ip twice weekly
  survival increase relative to vehicle: 46%
NZM mice [3]; both treatment groups of the substance
  mice still alive at day 56: 100%

From US9340559B2, “Proteasome inhibitor delanzomib for use in the treatment of lupus” (Cephalon, Inc., priority 2011, dated 2016)
